Measured values published in article PMC4399389, “Identification of a laccase Glac15 from Ganoderma lucidum 77002 and its application in bioethanol production” (Biotechnology for Biofuels, 2015).

Key:
Test in all cases: oxidation, absorbance at […] nm
Type in all cases: biochemical, Ganoderma lucidum
[1] = test system: T1, Glac15 (laccase, isoenzyme from G. lucidum 77002); settings: optimum pH 5.0; 50 mM citrate-phosphate buffer; optimal temperature 45 °C; O2 as co-substrate
T1 construct: native secreted enzyme purified from culture filtrate (ultrafiltration, DEAE-Sepharose FF); signal peptide of 21 residues removed; N-terminus GIGPTTDLTISNADI; tryptic peptides matched Glac6 and Glac15 of strain Xiangnong No.1

[2] = test system: T1, Glac15 (laccase, isoenzyme from G. lucidum 77002); settings: optimum pH 4.5; 50 mM citrate-phosphate buffer; optimal temperature 45 °C; O2 as co-substrate
[3] = test system: T1, Glac15 (laccase, isoenzyme from G. lucidum 77002); settings: optimum pH 4.5; 50 mM citrate-phosphate buffer; optimal temperature 45 °C; O2 as co-substrate; remark: listed apart in the source
[4] = test system: T1, Glac15 (laccase, isoenzyme from G. lucidum 77002); settings: optimum pH 5.0; 50 mM citrate-phosphate buffer; optimal temperature 55 °C; O2 as co-substrate
[5] = test system: T1, Glac15 (laccase, isoenzyme from G. lucidum 77002); settings: optimum pH 2.5; 50 mM citrate-phosphate buffer; optimal temperature 50 °C; O2 as co-substrate
[6] = test system: T1, Glac15 (laccase, isoenzyme from G. lucidum 77002); settings: optimum pH 4.5; 50 mM citrate-phosphate buffer; optimal temperature 50 °C; O2 as co-substrate

## Oc1ccccc1O [Catechol]
[1]
  Km: 780 µM

## COc1cccc(OC)c1O [2,6-DMP, 2,6-dimethoxyphenol]
[2]
  Km: 120 µM

## COc1cc(C=NN=Cc2cc(OC)c(O)c(OC)c2)cc(OC)c1O [Syringaldazine]
[3]
  Km: 62 µM

## COc1ccccc1O [Guaiacol]
[4]
  Km: 790 µM

## CCn1c(=NN=c2sc3cc(S(=O)(=O)O)ccc3n2CC)sc2cc(S(=O)(=O)O)ccc21 [ABTS, 2,2′-azino-bis-(3-ethylbenzothiazoline-6-sulfonic acid)]
[5]
  Km: 19 µM

## N[C@@H](Cc1ccc(O)c(O)c1)C(=O)O [L-dopamine]
[6]
  Km: 890 µM
